Test results published in ChEMBL document CHEMBL1148264, “Evaluation of series of isobenzofuranone dimers as PKCalpha ligands: implication for the distance between the two ligand binding sites” (Bioorg Med Chem Lett, 2004).
One block for each compound: values may come before it.

What was measured:
[1] = target: Protein kinase C alpha type (Homo sapiens) (UniProt P17252); experiment: Displacement of [3H]PDBu from protein kinase C alpha at 100 uM; Range 20 to 40
[2] = target: Protein kinase C alpha type (Homo sapiens) (UniProt P17252); experiment: Displacement of [3H]PDBu from protein kinase C alpha at 100 uM; Range 0 to 20
[3] = target: Protein kinase C alpha type (Homo sapiens) (UniProt P17252); experiment: Displacement of [3H]PDBu from protein kinase C alpha at 100 uM; Range 40 to 60
[4] = target: Protein kinase C alpha type (Homo sapiens) (UniProt P17252); experiment: Displacement of [3H]PDBu from protein kinase C alpha at 100 uM; Range 60 to 80
[5] = target: Protein kinase C alpha type (Homo sapiens) (UniProt P17252); experiment: Displacement of [3H]PDBu from protein kinase C alpha at 100 uM; Range 2 to 40
[6] = target: Protein kinase C alpha type (Homo sapiens) (UniProt P17252); experiment: Displacement of [3H]PDBu from protein kinase C alpha at 100 uM; Range 80 to 100
[7] = target: Protein kinase C alpha type (Homo sapiens) (UniProt P17252); experiment: Displacement of [3H]PDBu from protein kinase C alpha at 100 uM; Range 20 to 30

Structure (SMILES): CC(=O)OC[C@@]1(CO)OC(=O)c2c(OCCCCCCCCCCOc3cccc4c3C(=O)O[C@]4(CO)COC(C)=O)cccc21
inhibition [3]: 45%

Structure (SMILES): O=C(CCCCCCCCCCCCC(=O)OC[C@@]1(CO)OC(=O)c2c(OCc3ccccc3)cccc21)CC[C@@]1(CO)OC(=O)c2c(OCc3ccccc3)cccc21
inhibition [4]: 70%

Structure (SMILES): O=C(CCCCCCCCC(=O)OC[C@@]1(CO)OC(=O)c2c(OCc3ccccc3)cccc21)CC[C@@]1(CO)OC(=O)c2c(OCc3ccccc3)cccc21
inhibition [3]: 41%

Structure (SMILES): CC(=O)OC[C@@]1(CO)OC(=O)c2c(OCCCCCCCCCCCCOc3cccc4c3C(=O)O[C@]4(CO)COC(C)=O)cccc21
inhibition [4]: 70%

Structure (SMILES): O=C(CC[C@@]1(CO)OC(=O)c2c(OCc3ccccc3)cccc21)c1ccc(C(=O)OC[C@@]2(CO)OC(=O)c3c(OCc4ccccc4)cccc32)cc1
inhibition [2]: 2%

Structure (SMILES): O=C(CC[C@@]1(CO)OC(=O)c2c(OCc3ccccc3)cccc21)c1ccccc1C(=O)OC[C@@]1(CO)OC(=O)c2c(OCc3ccccc3)cccc21
inhibition [2]: 4%

Structure (SMILES): O=C(CCCCCCCCCCCCCCCCCCC(=O)OC[C@@]1(CO)OC(=O)c2c(OCc3ccccc3)cccc21)CC[C@@]1(CO)OC(=O)c2c(OCc3ccccc3)cccc21
inhibition [2]: 10%

Structure (SMILES): O=C(CCCCCCC(=O)OC[C@@]1(CO)OC(=O)c2c(OCc3ccccc3)cccc21)CC[C@@]1(CO)OC(=O)c2c(OCc3ccccc3)cccc21
inhibition [2]: 19%

Structure (SMILES): CC(=O)OC[C@@]1(CO)OC(=O)c2c(OCCCCCCCCCCCCCCCOc3cccc4c3C(=O)O[C@]4(CO)COC(C)=O)cccc21
inhibition [6]: 92%

Structure (SMILES): CC(=O)OC[C@@]1(CO)OC(=O)c2c(OCCCCCCCCCOc3cccc4c3C(=O)O[C@]4(CO)COC(C)=O)cccc21
inhibition [3]: 42%

Structure (SMILES): CCCCCCCCCCCCOc1cccc2c1C(=O)O[C@]2(CO)COC(C)=O
inhibition [4]: 70%

Structure (SMILES): CC(=O)OC[C@@]1(CO)OC(=O)c2c(OCCCCCCCCCCCCCCCCCCCCCCCCOc3cccc4c3C(=O)O[C@]4(CO)COC(C)=O)cccc21
inhibition [2]: 19%

Structure (SMILES): CC(=O)OC[C@@]1(CO)OC(=O)c2c(OCCCCCCCCCCCCCCOc3cccc4c3C(=O)O[C@]4(CO)COC(C)=O)cccc21
inhibition [6]: 90%

Results, then the compound that gave them:

inhibition [1]: 25%
Structure (SMILES): CC(=O)OC[C@@]1(CO)OC(=O)c2c(OCCCCCCCCCCCCCCCCCCCCCCOc3cccc4c3C(=O)O[C@]4(CO)COC(C)=O)cccc21

inhibition [2]: 18%
Structure (SMILES): O=C(CCCCC(=O)OC[C@@]1(CO)OC(=O)c2c(OCc3ccccc3)cccc21)CC[C@@]1(CO)OC(=O)c2c(OCc3ccccc3)cccc21

inhibition [5]: 30%
Structure (SMILES): CC(=O)OC[C@@]1(CO)OC(=O)c2c(OCc3ccccc3)cccc21

inhibition [3]: 54%
Structure (SMILES): O=C(CCCCCCCCCCCCCCC(=O)OC[C@@]1(CO)OC(=O)c2c(OCc3ccccc3)cccc21)CC[C@@]1(CO)OC(=O)c2c(OCc3ccccc3)cccc21

inhibition [6]: 85%
Structure (SMILES): CC(=O)OC[C@@]1(CO)OC(=O)c2c(OCCCCCCCCCCCCCOc3cccc4c3C(=O)O[C@]4(CO)COC(C)=O)cccc21

inhibition [6]: 90%
Structure (SMILES): CCCCCCCCCCCC(=O)OC[C@@]1(CO)OC(=O)c2c(OCc3ccccc3)cccc21

inhibition [4]: 70%
Structure (SMILES): O=C(CCCCCCCCCCC(=O)OC[C@@]1(CO)OC(=O)c2c(OCc3ccccc3)cccc21)CC[C@@]1(CO)OC(=O)c2c(OCc3ccccc3)cccc21

inhibition [6]: 91%
Structure (SMILES): CC(=O)OC[C@@]1(CO)OC(=O)c2c(OCCCCCCCCCCCCCCCCOc3cccc4c3C(=O)O[C@]4(CO)COC(C)=O)cccc21

inhibition [2]: 4%
Structure (SMILES): O=C(CC[C@@]1(CO)OC(=O)c2c(OCc3ccccc3)cccc21)c1cccc(C(=O)OC[C@@]2(CO)OC(=O)c3c(OCc4ccccc4)cccc32)c1

inhibition [3]: 60%
Structure (SMILES): CC(=O)OC[C@@]1(CO)OC(=O)c2c(OCCCCCCCCCCCOc3cccc4c3C(=O)O[C@]4(CO)COC(C)=O)cccc21

inhibition [7]: 30%
Structure (SMILES): O=C(CCCCCCCCCCCCCCCCC(=O)OC[C@@]1(CO)OC(=O)c2c(OCc3ccccc3)cccc21)CC[C@@]1(CO)OC(=O)c2c(OCc3ccccc3)cccc21
